Marks after values point to notes of the source that are not given here.
System: peripheral blood mononuclear cells (PBMC)
Assay: Cytokine and immune-function gene expression of PBMC in vitro (qRT-PCR, 41 immune-related genes)
Assay type: cell-based, human
Protocol: After a screening visit at which blood was drawn to test for IgG antibody against HSV-1 and subjects were interviewed for inclusion/exclusion criteria, selected subjects returned for blood draws on day 1. After the blood draw on day 1, subjects in group A only were dosed with SADBE. A petrolatum donut was applied with a cotton swab to form about a 1 cm diameter donut on skin on the inner aspect of the upper arm. Then a separate cotton swab was dipped in a 2% SADBE solution (w/v) in DMSO, and the swab was then used to apply about 10-20 mg of solution over about a 1 cm diameter circle within the petrolatum donut. Immediately after application, the application site was covered with TEGADERM. Subjects were advised to remove the TEGADERM and rinse and wipe the spot three hours later. The group A subjects then returned for blood draws on days 15 and 57 and were queried about adverse events on those dates.
PBMC were isolated using SepMate PBMC isolation tubes (Stem Cell Technologies, Vancouver, Canada) and Ficoll-Paque according to the manufacturer's instructions. PBMC were isolated and suspended in negative control medium at 2 million cells/ml. PBMC suspension (100 μL) was added to 100 μL of medium in quadruplicate in 96-well plates. The plates were prepared in advance and stored at −70° C. The wells were in five different conditions in quadruplicate with these final concentrations after addition of the 100 μL of PBMC suspension in negative control medium. • 1. Negative control in medium (RPMI with glutamine and pen/strep, supplemented with 10% human A/B serum). • 2. Medium plus 16 μg/ml protein from heat-inactivated HSV-1-infected Vero cell extracts. • 3. Medium plus heat-inactivated HSV-1 cell-free virus at a final 7.5 million pfu/ml. • 4. Medium plus Candida cell extract. (Greer item number M15A50, 20,000 pnu/ml allergenic extract mixed molds Candida albicans, was diluted 1/50 into medium). • 5. Positive control, medium plus 10 μg/ml concanavalin A.
Two plates were created for each subject at each collection point. One plate was incubated for 2 days at 37° C. in a humidified 5% CO2 atmosphere and then RNA was isolated from the pooled contents of the 4 wells of a given condition for a specific patient, and the RNA was stored at −70° C. and subsequently used for quantitative real time PCR analysis of gene expression of 41 immune-related genes.
As noted above, after 2 days of growth of the PBMC in a 37° C. humidified 5% CO2 incubator in a 96-well plate, four wells of a single condition (negative control, positive control, heat-inactivated HSV-1, HSV-1-infected cell extracts, or Candida extract) with cells from a single subject (200 μL in each well) were pooled, and the RNA was immediately isolated with Trizol reagent and chloroform by Qiagen RNeasy MiniElute clean up kit Qiagen cat #74204, according to manufacturer's instructions into a final volume of 13 μL, and then flash frozen on powdered dry ice, and stored at −70° C. in aliquots of 3 μL for RNA quantification and 10 μL for PCR analysis.
RNA was preamplified with the Qiagen RT2 PreAMP cDNA synthesis kit (Ref. 330451) and custom RT2 PreAmp primer mix (Ref. 330141) starting with about 50 ng RNA according to the procedure of RT preamp cDNA synthesis handbook date March 2011, pages 17-20. The amplification reactions (final 120 μL) were frozen at −70° C. and used for qPCR analysis the next day.
qPCR was done with the Qiagen RT PCR profiler gene analysis kit (catalog number 330451) using RT2 Sybr Green Rox qPCR Mastermix (24) (Part 330523) and Custom RT2 PCR array plates (Ref. 330171). For this 675 μL 2×RT2 SYBR green mastermix, 51 μL pre-AMP synthesis reaction, and 623 μL RNase free water were mixed, and then 25 μL of the mixture was added to 48 wells on the left or right half of the custom PCR plate. The PCR instrument was Applied Biosystems 7900HT fast real time PCR. […]

[1] = PBMC + Candida extract, group A day 57 vs day 1 (pre-dose), one topical 2% SADBE dose
[2] = PBMC + HSV-1-infected cell extracts (CE), group A day 57 vs day 1 (pre-dose), one topical 2% SADBE dose
[3] = PBMC + heat-killed HSV-1 virus, group A day 57 vs day 1 (pre-dose), one topical 2% SADBE dose

CCCCOc1c(OCCCC)c(=O)c1=O [SADBE, 3,4-Dibutoxy-3-cyclobutene-1,2-dione]
ratio of absolute expression in A57 vs. A1: FOXP3 [1]: 2.01 | ratio of absolute expression in A57 vs. A1: GATA3 [1]: 0.28 | ratio of absolute expression in A57 vs. A1: ICAM1 [1]: 1.27 | ratio of absolute expression in A57 vs. A1: IFNA1 [1]: 2.13 | ratio of absolute expression in A57 vs. A1: IFNB1 [1]: 0.93 | ratio of absolute expression in A57 vs. A1: IFNG [1]: 8.54 | ratio of absolute expression in A57 vs. A1: IL1B [1]: 1.73 | ratio of absolute expression in A57 vs. A1: IL1R1 [1]: 0.9 | ratio of absolute expression in A57 vs. A1: IL1RN [1]: 1.91 | ratio of absolute expression in A57 vs. A1: IL2 [1]: 6.31 | ratio of absolute expression in A57 vs. A1: IL4 [1]: 1.52 | ratio of absolute expression in A57 vs. A1: IL5 [1]: 1.1 | ratio of absolute expression in A57 vs. A1: IL8 [1]: 1.89 | ratio of absolute expression in A57 vs. A1: IL10 [1]: 1.12 | ratio of absolute expression in A57 vs. A1: IL12A [1]: 1.64 | ratio of absolute expression in A57 vs. A1: IL12B [1]: 3.61 | ratio of absolute expression in A57 vs. A1: IL13 [1]: 4.28 | ratio of absolute expression in A57 vs. A1: IL15 [1]: 2.18 | ratio of absolute expression in A57 vs. A1: IL16 [1]: 0.81 | ratio of absolute expression in A57 vs. A1: JAK2 [1]: 1.68 | ratio of absolute expression in A57 vs. A1: LTA [1]: 1.94 | ratio of absolute expression in A57 vs. A1: LYZ [1]: 0.93 | ratio of absolute expression in A57 vs. A1: MX1 [1]: 1.34 | ratio of absolute expression in A57 vs. A1: NOD1 [1]: 1.18 | ratio of absolute expression in A57 vs. A1: SPP1 [1]: 7.34 | ratio of absolute expression in A57 vs. A1: STAT1 [1]: 3.36 | ratio of absolute expression in A57 vs. A1: STAT4 [1]: 1.76 | ratio of absolute expression in A57 vs. A1: TNF [1]: 1.22 | ratio of absolute expression in A57 vs. A1: TNFSF10 [1]: 1.52 | ratio of absolute expression in A57 vs. A1: TNFSF13B [1]: 1.62 | ratio of absolute expression in A57 vs. A1: CCL2 [2]: 1.21 | ratio of absolute expression in A57 vs. A1: CCL3 [2]: 4.6 | ratio of absolute expression in A57 vs. A1: CCL7 [2]: 0.75 | ratio of absolute expression in A57 vs. A1: CCR5 [2]: 0.93 | ratio of absolute expression in A57 vs. A1: CD80 [2]: 0.93 | ratio of absolute expression in A57 vs. A1: CXCL2 [2]: 2.79 | ratio of absolute expression in A57 vs. A1: CXCL5 [2]: 6.03 | ratio of absolute expression in A57 vs. A1: CXCL9 [2]: 0.91 | ratio of absolute expression in A57 vs. A1: CXCL10 [2]: 0.49 | ratio of absolute expression in A57 vs. A1: CXCL11 [2]: 0.31 | ratio of absolute expression in A57 vs. A1: DDX58 [2]: 0.94 | ratio of absolute expression in A57 vs. A1: FOXP3 [2]: 1.11 | ratio of absolute expression in A57 vs. A1: GATA3 [2]: 2.6 | ratio of absolute expression in A57 vs. A1: ICAM1 [2]: 0.77 | ratio of absolute expression in A57 vs. A1: IFNA1 [2]: 1.29 | ratio of absolute expression in A57 vs. A1: IFNB1 [2]: 0.65 | ratio of absolute expression in A57 vs. A1: IFNG [2]: 5.72 | ratio of absolute expression in A57 vs. A1: IL1B [2]: 21.45 | ratio of absolute expression in A57 vs. A1: IL1R1 [2]: 1.11 | ratio of absolute expression in A57 vs. A1: IL1RN [2]: 0.79 | ratio of absolute expression in A57 vs. A1: IL2 [2]: 2.48 | ratio of absolute expression in A57 vs. A1: IL4 [2]: 0.89 | ratio of absolute expression in A57 vs. A1: IL5 [2]: 0.5 | ratio of absolute expression in A57 vs. A1: IL8 [2]: 3.86 | ratio of absolute expression in A57 vs. A1: IL10 [2]: 3.29 | ratio of absolute expression in A57 vs. A1: IL12A [2]: 0.89 | ratio of absolute expression in A57 vs. A1: IL12B [2]: 0.23 | ratio of absolute expression in A57 vs. A1: IL13 [2]: 2.28 | ratio of absolute expression in A57 vs. A1: IL15 [2]: 0.87 | ratio of absolute expression in A57 vs. A1: IL16 [2]: 1.02 | ratio of absolute expression in A57 vs. A1: JAK2 [2]: 0.82 | ratio of absolute expression in A57 vs. A1: LTA [2]: 0.99 | ratio of absolute expression in A57 vs. A1: LYZ [2]: 0.29 | ratio of absolute expression in A57 vs. A1: MX1 [2]: 0.66 | ratio of absolute expression in A57 vs. A1: NOD1 [2]: 0.89 | ratio of absolute expression in A57 vs. A1: SPP1 [2]: 5.38 | ratio of absolute expression in A57 vs. A1: STAT1 [2]: 0.91 | ratio of absolute expression in A57 vs. A1: STAT4 [2]: 1.01 | ratio of absolute expression in A57 vs. A1: TNF [2]: 1.2 | ratio of absolute expression in A57 vs. A1: TNFSF10 [2]: 0.88 | ratio of absolute expression in A57 vs. A1: TNFSF1313 [2]: 1.07 | ratio of absolute expression in A57 vs. A1: CCL2 [3]: 1.71 | ratio of absolute expression in A57 vs. A1: CCL3 [3]: 3.73 | ratio of absolute expression in A57 vs. A1: CCL7 [3]: 1.81 | ratio of absolute expression in A57 vs. A1: CCR5 [3]: 1.35 | ratio of absolute expression in A57 vs. A1: CD80 [3]: 1.25 | ratio of absolute expression in A57 vs. A1: CXCL2 [3]: 1.58 | ratio of absolute expression in A57 vs. A1: CXCL5 [3]: 2.52 | ratio of absolute expression in A57 vs. A1: CXCL9 [3]: 2.5 | ratio of absolute expression in A57 vs. A1: CXCL10 [3]: 1 | ratio of absolute expression in A57 vs. A1: CXCL11 [3]: 0.4 | ratio of absolute expression in A57 vs. A1: DDX58 [3]: 0.95 | ratio of absolute expression in A57 vs. A1: FOXP3 [3]: 2.46 | ratio of absolute expression in A57 vs. A1: GATA3 [3]: 0.32 | ratio of absolute expression in A57 vs. A1: ICAM1 [3]: 1.07 | ratio of absolute expression in A57 vs. A1: IFNA1 [3]: 1.34 | ratio of absolute expression in A57 vs. A1: IFNB1 [3]: 0.87 | ratio of absolute expression in A57 vs. A1: IFNG [3]: 11.01 | ratio of absolute expression in A57 vs. A1: IL1B [3]: 5.09 | ratio of absolute expression in A57 vs. A1: IL1R1 [3]: 0.97 | ratio of absolute expression in A57 vs. A1: IL1RN [3]: 1.48 | ratio of absolute expression in A57 vs. A1: IL2 [3]: 2.11 | ratio of absolute expression in A57 vs. A1: IL4 [3]: 1.32 | ratio of absolute expression in A57 vs. A1: IL5 [3]: 0.56 | ratio of absolute expression in A57 vs. A1: IL8 [3]: 3.3 | ratio of absolute expression in A57 vs. A1: IL10 [3]: 2.29 | ratio of absolute expression in A57 vs. A1: IL12A [3]: 1.48 | ratio of absolute expression in A57 vs. A1: IL12B [3]: 2.08 | ratio of absolute expression in A57 vs. A1: IL13 [3]: 3.02 | ratio of absolute expression in A57 vs. A1: IL15 [3]: 1.54 | ratio of absolute expression in A57 vs. A1: IL16 [3]: 0.82 | ratio of absolute expression in A57 vs. A1: JAK2 [3]: 1.26 | ratio of absolute expression in A57 vs. A1: LTA [3]: 1.84 | ratio of absolute expression in A57 vs. A1: LYZ [3]: 0.53 | ratio of absolute expression in A57 vs. A1: MX1 [3]: 0.66 | ratio of absolute expression in A57 vs. A1: NOD1 [3]: 1.14 | ratio of absolute expression in A57 vs. A1: SPP1 [3]: 15.29 | ratio of absolute expression in A57 vs. A1: STAT1 [3]: 1.41 | ratio of absolute expression in A57 vs. A1: STAT4 [3]: 1.69 | ratio of absolute expression in A57 vs. A1: TNF [3]: 1.19 | ratio of absolute expression in A57 vs. A1: TNFSF10 [3]: 1.01 | ratio of absolute expression in A57 vs. A1: TNFSF13B [3]: 1.23 | Ratio of absolute IFNG gene expression in group A vs. Groups B + C pooled (Virus, group A day 57 after SADBE): 3.359* | IFNG expression in group A on day 57 than day 1 (all three stimuli, PBMC): at least 8 fold

Source: patent US11957783B2, “Topical immunosensitizers to treat viral and fungal infections” (Squarex, LLC, priority 2018, dated 2024)
